Data published in PubChem BioAssay (NCI).
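Method: 48-hour compound exposure of cells in 96-well plates, five concentrations, linear interpolation of endpoints. GI50 marks 50% less growth. Definition used: TGI = concentration required for complete inhibition of growth.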

Key:
Test in all cases: growth of human tumour cells (NCI), 48 h
MCF7 breast = test system: MCF7 breast
T-47D breast = test system: T-47D breast
DU-145 prostate = test system: DU-145 prostate
A498 renal = test system: A498 renal
HOP-62 NSCLC = test system: HOP-62 NSCLC
PC-3 prostate = test system: PC-3 prostate
HS 578T breast = test system: HS 578T breast
MDA-MB-231 breast = test system: MDA-MB-231 breast
MDA-MB-435 = test system: MDA-MB-435
786-0 renal = test system: 786-0 renal

SMILES | TGI (MCF7 breast) | TGI (T-47D breast) | TGI (DU-145 prostate) | TGI (A498 renal) | TGI (HOP-62 NSCLC) | TGI (PC-3 prostate) | TGI (HS 578T breast) | TGI (MDA-MB-231 breast) | TGI (MDA-MB-435) | TGI (786-0 renal) | GI50 (MCF7 breast) | GI50 (T-47D breast) | GI50 (DU-145 prostate) | GI50 (A498 renal) | GI50 (HOP-62 NSCLC) | GI50 (PC-3 prostate) | GI50 (HS 578T breast) | GI50 (MDA-MB-231 breast) | GI50 (MDA-MB-435)
O=C(O)CC(C(=O)O)C1c2ccccc2-c2ccccc21 (stereo not given) | > 100 µM | > 100 µM | > 100 µM | > 100 µM | > 100 µM | > 100 µM | > 100 µM | > 100 µM | > 100 µM | > 100 µM |  |  |  |  |  |  |  |  | 
O=S(=O)(O)c1cc(N=Nc2cc(S(=O)(=O)O)c3ccccc3c2O)ccc1/C=C/c1ccc(N=Nc2cc(S(=O)(=O)O)c3ccccc3c2O)cc1S(=O)(=O)O | > 1000 µM | > 1000 µM | 712 µM |  | > 1000 µM | 986 µM | 756 µM | 82.1 µM | 258 µM | > 1000 µM |  |  |  |  |  |  |  |  | 
Nc1cc(S(=O)(=O)O)cc2cc(S(=O)(=O)O)c(N=Nc3ccc(-c4ccc(N=Nc5c(S(=O)(=O)O)cc6cc(S(=O)(=O)O)cc(N)c6c5O)cc4)cc3)c(O)c12 | > 100 µM |  |  | > 100 µM | > 100 µM |  |  |  |  |  |  |  |  |  |  |  |  |  | 
C=C1C(=O)CCC1C(=O)O (stereo not given) | > 100 µM | > 100 µM | > 100 µM | > 100 µM | > 100 µM | > 100 µM | > 100 µM | > 100 µM | > 100 µM | > 100 µM |  |  |  |  |  |  |  |  | 
C=C(C)C(=O)OC1C(C(C)CCCO)=C(CO)CC2OC(=O)C(=C)C21 (stereo not given) | 24.1 µM | 45.5 µM | 27.8 µM | 36.5 µM | > 100 µM | 76.6 µM | > 100 µM | 36 µM | 52.1 µM | 25.9 µM |  |  |  |  |  |  |  |  | 
COc1ccc(-c2nn(-c3ccc(NC(=O)Nc4ccc(Cl)c(Cl)c4)cc3)cc2-c2ccncc2)cc1Cl | 9.34 µM | > 100 µM | > 100 µM | 8.04 µM | > 100 µM | 14.4 µM | 7.63 µM | 4.33 µM | > 100 µM |  | 2.37 µM | 3.24 µM | 3.97 µM | 1.75 µM | 3.73 µM | 1.29 µM | 1.42 µM | 1.5 µM | 2.3 µM
C=C(C)C1CC2=C(O1)C(=O)c1ccccc1C2=O (stereo not given) |  |  |  |  | 35.2 µM |  |  |  |  |  |  |  |  |  |  |  |  |  | 
C=C1C(=O)OC2/C=C(\C)C(=O)CC3OC(C)(C)OC3(C)CC(OC(=O)/C(C)=C/C)C12 (stereo not given) | > 47.1 µM | > 64.6 µM | 45.1 µM | 54.4 µM | > 100 µM | 59 µM | > 100 µM | 58 µM | > 68.2 µM | > 47.9 µM |  |  |  |  |  |  |  |  | 
OC(Cc1ccccc1)(Cc1ccccc1)c1ccccc1 |  | > 100 µM | 32.3 µM | 34.1 µM | 36.1 µM | 34.4 µM |  | 33.8 µM | 33.4 µM | 29.6 µM |  |  |  |  |  |  |  |  | 
O=C(/C=c1\oc(=O)/c(=C/C(=O)c2ccc(Cl)cc2)oc1=O)c1ccc(Cl)cc1 | > 100 µM | > 100 µM | > 100 µM | > 100 µM | > 100 µM | > 100 µM | > 100 µM | > 100 µM | > 100 µM | > 100 µM |  |  |  |  |  |  |  |  | 
CC(C)(C)C1(c2ccc(C3(c4ccccc4)Oc4ccccc4S3)[nH]2)Oc2ccccc2S1 (stereo not given) |  |  |  |  | > 100 µM |  |  |  |  |  |  |  |  |  |  |  |  |  | 
COc1cc(C(C)(C)C)cc(OC)c1C(O)(c1c(OC)cc(C(C)(C)C)cc1OC)c1c(OC)cc(C(C)(C)C)cc1OC |  |  |  | 2.53 µM |  |  |  |  | 0.974 µM |  |  |  |  | 0.477 µM |  |  | 0.711 µM |  | 0.306 µM
CCN=C=NCCCN(C)C | > 100 µM |  | > 100 µM | > 100 µM | > 100 µM | > 100 µM | > 100 µM | > 100 µM | > 100 µM | > 100 µM |  |  |  |  |  |  |  |  | 
O=Nc1ccc(O)c2ncccc12 | 16.6 µM | 33.1 µM | 65.9 µM | 42.4 µM | 15 µM | 29.8 µM | 3.66 µM | 57.3 µM | 3.83 µM | 14.7 µM |  |  |  |  |  |  |  |  | 
C[N+]1(C)CCOC(O)(c2ccccc2)C1 (stereo not given) | > 100 µM | > 100 µM | > 100 µM | > 100 µM | > 100 µM | > 100 µM | > 100 µM | > 100 µM | > 100 µM | > 100 µM |  |  |  |  |  |  |  |  | 
Cc1ccc(P(c2ccc(C)cc2)c2ccc(C)cc2)cc1 | > 100 µM | > 100 µM | 40.1 µM | 79.3 µM |  | > 100 µM | 57 µM | 67.6 µM | 41.1 µM |  |  |  |  |  |  |  |  |  | 
O=[N+]([O-])c1ccc(/C=N\Nc2ccc([N+](=O)[O-])cn2)cc1 | > 100 µM | > 100 µM | > 100 µM |  | > 100 µM | > 100 µM | > 100 µM | > 100 µM | > 100 µM | > 100 µM |  |  |  |  |  |  |  |  | 
C=C1CC23CCC4C(C)(C(=O)O)CCCC4(C)C2CCC1C3 (stereo not given) | > 100 µM | > 100 µM | > 100 µM | > 100 µM | > 100 µM | > 100 µM | > 100 µM | > 100 µM | > 100 µM | > 100 µM |  |  |  |  |  |  |  |  | 
COc1ccc2[nH]c3c([N+](=O)[O-])ccc(Cl)c3c(=O)c2c1 | > 84.8 µM | > 84.7 µM | > 100 µM | > 100 µM | 73.6 µM | 52.1 µM | > 100 µM | 32.8 µM | > 55.8 µM | 33.7 µM |  |  |  |  |  |  |  |  | 
COC1/C=C\OC2(C)Oc3c(C)c(O)c4c(O)c(c(/C=N\OCCCc5ccccc5)c(O)c4c3C2=O)NC(=O)/C(C)=C\C=C/C(C)C(O)C(C)C(O)C(C)C(OC(C)=O)C1C (stereo not given) | 5.6 µM | 15.6 µM | 15.7 µM | 20.5 µM | 6.75 µM | 11.2 µM | 25.2 µM | 7.97 µM | 9.28 µM | 9.81 µM |  |  |  |  |  |  |  |  | 
C=C(C)[C@@H]1CC[C@]2(C(=O)Nc3ccccn3)CC[C@]3(C)[C@H](CC[C@@H]4[C@@]5(C)CCCNC(C)(C)[C@@H]5CC[C@]43C)[C@@H]12 | 3.07 µM |  | 3.42 µM | 7.96 µM |  | 6.2 µM | 4.42 µM |  |  |  | 1.48 µM |  | 1.81 µM | 2.25 µM |  | 1.99 µM | 1.92 µM |  | 
CCN(CC)C(=S)SC(=S)N(CC)CC | > 100 µM | > 100 µM | > 100 µM | > 100 µM | > 100 µM | > 100 µM | > 100 µM | > 92.1 µM | > 100 µM | 56.3 µM |  |  |  |  |  |  |  |  | 
CC(=O)c1cccc(Nc2c3ccccc3nc3occc23)c1 | > 100 µM | 28 µM | > 100 µM | 74.7 µM | 20.6 µM | > 100 µM | 35.3 µM | 67.7 µM | 2.85 µM | 27.6 µM |  |  |  |  |  |  |  |  | 
C=C(CN(C)C)C(=O)c1ccc(C)cc1C | 13.9 µM | 18.6 µM | 33.5 µM | 33.7 µM | 47.5 µM | 31.1 µM | > 79 µM | 52.1 µM | 17.1 µM | 12.5 µM |  |  |  |  |  |  |  |  | 
CC(C)=CCc1c(O)ccc2c1OC1c3ccc(O)c(CC=C(C)C)c3OCC21 (stereo not given) | 16.9 µM |  |  | 25 µM | 23.9 µM |  |  |  |  |  |  |  |  |  |  |  |  |  | 
C[C@H](C(=O)N[C@@H](Cc1ccc(-c2ccccc2)cc1)C(=O)NC1CC(C)(C)N(C)C(C)(C)C1)c1ccc(-c2ccccc2)c(F)c1 |  |  | 3 µM |  |  |  |  | 3.02 µM | 2.56 µM |  |  |  | 1.58 µM |  |  |  |  | 1.49 µM | 1.29 µM
